Where two headings read alike, the source gives them in different places.
Columns and labels:
[1] = Plasma pharmacokinetics after a single dose of liquid or solid oat product (compartmental PK model); assay type: in vivo, humans; design: V/F: unit not given here; conditions: for Cmax / half-life / k el / Tmax: both sexes, oral; for Cmax / half-life / k el: human, plasma; for Cmax / half-life / k el / Tmax / T1/2 / ka / V/F / AUC(norm): single dose; for k el: elimination rate (Table 2), read-out: ke (converted); for Tmax: human plasma, derived from PK model; for V, population estimate (RSE%) / ka, population estimate (RSE%) / ke, population estimate (RSE%): Table S1 compartmental model; for ka: absorption rate (Table 2); for V/F: distribution volume over bioavailability; for AUC(norm): normalized for nmol intake
Text: A non-blinded, randomized two-way crossover study with two different oat products (solid or liquid) was designed to investigate the AVA and AVE PK after a single dose and after repeated dosing at three different doses, for respective food (Fig. 2). Since this is the first study of its kind, it is impossible to make any formal calculation of the number of subjects needed to show meaningful differences in plasma biomarker concentrations, since the variation is unknown. However, similar studies aimed for BFI discovery and validation of dose-response have typically used 5–30 subjects. We therefore considered 23 individuals as a good compromise between feasibility and possibilities to assess variation in biomarker concentrations, estimate pharmacokinetic parameters, dose response and performing modelling with good precision. A scientist not involved in the study, conducted the randomization using the RAR method (RandomizeR package) in R software environment and provided lists with allocated treatment sequences. The study was conducted in two phases. In the first phase, blood samples were drawn from 11 men and 12 women for 24 h after consumption of a single dose of either a solid or a liquid oat product on-site. Breakfast and lunch were also provided on-site. A single dose of solid (62 g of oat flakes) or liquid (196 mL of oat drink) containing individual AVAs and AVEs shown in Table 1 were consumed, respectively. Blood plasma samples were drawn for 24 h (0 h, 0.25 h, 0.5 h, 0.75 h, 1 h, 1.5 h, 2 h, 3 h, 4 h, 5 h, 6 h, 7 h, 8 h, 24 h). After the 24 h, at the second phase of the study, the corresponding product was further consumed three times per day for four days at either a low, medium, or high intake dose (98, 196 and 392 mL for liquid oats and 31, 62 and 123 g for oat flakes with corresponding contents of AVAs and AVEs (Table 1) in a Latin square design. Therefore, a total number of 8 participants (2 males and 6 females) were randomized to the low dose, 9 participants (3 males and 6 females) for medium dose and 6 participants (3males and 3 females) for the high dose. Participants consumed the provided products at home and were instructed to follow their habitual diets with restriction on the consumption of oat products. A list of relevant foods was provided as a guide. The oat flakes were pre-portioned into individual bags and could be consumed without heating, mixed with yoghurt, cottage cheese, sour milk or any liquid. Participants were instructed to consume the full amount, including the liquid or food the oats were mixed with. Liquid oat products were weighed prior consumption, and they were to be consumed without any additional food. In all cases the time of oat intake was recorded in a food journal. On the fifth day of phase II, a fasting sample was drawn. Fecal samples were collected at baseline and at the end of phase II of the intervention. Between each study period, there was a wash-out period of eight days where participants consumed their habitual diet. After the washout, participants started with a single dose and repeated dosing for the other product in the same way as for the first. The participants were instructed to avoid foods containing oats during the last three days prior to the start of the study and during the last three days of the wash-out period. Compliance was assessed based on information provided in a compliance journal during the study weeks as well as through 2-day food records. The oat products used in the study were provided to the participants. The flakes for the single dose were consumed with water ad lib and for the repeated dose they could be mixed with water, yoghurt, milk, sour milk or cottage cheese with the condition that all the amount of the oat product is consumed. The oat drink was consumed without any other product.
All blood samples were collected into EDTA-coated tubes by a trained nurse. […]

[2] = test system: Feacalibacterium prausnitzii; experiment: Association of F. prausnitzii relative abundance at baseline with Cmax and AUC strata (logistic regression); design: species or system humans; conditions: liquid, solid, or combined; single dose phase I
Description: DNA was extracted from approximately 35 mg of each of the 451 fecal samples using the NucleoSpin Soil kit (Macherey-Nagel, 740780.250 M), following the manufacturer’s instructions. DNA yield was quantified using the Qubit 1X dsDNA Broad Range assay kit (Thermo Fisher Scientific, Q33266). For metagenomic shotgun sequencing, libraries were prepared with the MGIEasy Fast FS DNA Library Prep Set (MGI Tech Co., Ltd., 940-000030-00, Werheim, Germany), using 400 ng of DNA per sample. The library preparation process included DNA shearing for 12.5 min, followed by end repair, A-tailing, and magnetic bead-based cleanup. Adapter ligation and cleanup were then performed, followed by PCR amplification and magnetic bead-based size selection of the final library product. Library quality was assessed using the Qubit 1X dsDNA HS Assay Kit (Thermo Fisher Scientific, Q33231) and the Agilent High Sensitivity D1000 Assay Kit (Agilent Technologies, 5067–5584 and 5067–5585, Santa Clara, CA, USA). Pooled libraries were circularized, barcoded, and used as templates for DNA nanoball preparation. The nanoballs were then analyzed on the DNBSEQ-T7 platform (MGI Tech Co., Ltd.) using the DNBSEQ-T7RS High-throughput Sequencing Set (FCL PE150), according to the manufacturer’s guidelines.
Raw metagenomic reads underwent quality control to remove low-quality sequences, adapters, and contaminants using Fastp (version 0.23.2, default parameters). High-quality reads were filtered to exclude human reads (GRCh38_noalt_as) using Bowtie2 [38] (version 2.5.3). The quality-filtered reads were then aligned to the taxonomy database using MetaPhlAn (version 4.0.6, default parameters) to generate relative abundance profiles. For inclusion in the analysis, a species was required to be present in at least three samples.
For the seven metabolites AVE A, AVE B, AVA 2c, AVA 2f, AVA 2fd, AVA 2p, AVA 2pd analysed at phase I after the single dose of oat products, Cmax and area under the curve (AUC) were stratified based on less than the median or more or equal to the […]. Thereafter, for each metabolite, it was investigated whether the relative abundance of F. prausnitzii at baseline could predict the strata since this bacterium has previously been reported to be responsible for production of their dihydro-metabolites. Logistic regression with a binomial distribution and a logistic link function was used to separately analyze the liquid and solid products. When analyzing liquid and solid products together, a generalized linear mixed model with a binomial distribution and a logistic link function was used, with identity included as a random factor.

[3] = 62 g of oat flakes, solid oat product (62 g oat flakes)
[4] = 196 mL of oat drink, liquid oat product (196 mL oat drink)

SMILES	Cmax ([1]; 62 g of oat flakes, solid) [nM]	half-life ([1]; 62 g of oat flakes, solid) [h]	k el ([1]; 62 g of oat flakes, solid) [s⁻¹]	Cmax ([1]; 196 mL of oat drink, liquid) [nM]	half-life ([1]; 196 mL of oat drink, liquid) [h]	k el ([1]; 196 mL of oat drink, liquid) [s⁻¹]	Tmax [1, 3] [h]	Tmax [1, 4] [h]	V, population estimate (RSE%) ([1]; liquid)	ka, population estimate (RSE%) ([1]; liquid)	ke, population estimate (RSE%) ([1]; liquid)	T1/2 ([1]; liquid)	ka ([1]; liquid)	V/F ([1]; liquid)	V, population estimate (RSE%) ([1]; solid)	ka, population estimate (RSE%) ([1]; solid)	ke, population estimate (RSE%) ([1]; solid)	ka ([1]; solid) [h⁻¹]	V/F ([1]; solid)	association between F. prausnitzii abundance at baseline and Cmax and AUC [2]	further results
COc1cc(/C=C/C=C/C(=O)Nc2ccc(O)cc2C(=O)O)ccc1O [AVA 2fd]	7.34 ± 0.78	1.65 ± 0.13	0.000117	2.46 ± 0.25	1.3	0.000144	1.53 ± 0.07	1.01 ± 0.04	210 (13) L	3.6 (10) 1/h	0.52 (14) 1/h	1.33 ± 0.10 h	3.6 ± 0.2^1 1/h	211 ± 21^2	320 (22) L	2.2 (10) 1/h	0.42 (17) 1/h	2.2 ± 0.12	314 ± 32	no significant associations	–
O=C(/C=C/C=C/c1ccc(O)cc1)Nc1ccc(O)cc1C(=O)O [AVA 2pd]	16.8 ± 1.78	2.63 ± 0.2	7.22e-05	3.1 ± 0.31	2.5	7.78e-05	2.31 ± 0.1	1.6 ± 0.07	130 (16) L	2.4 (9) 1/h	0.30 (13) 1/h	2.45 ± 0.19 h	2.40 ± 0.1^1 1/h	131 ± 13^2	190 (22) L	1.5 (10) 1/h	0.27 (17) 1/h	1.48 ± 0.10	189 ± 19	no significant associations	–
CC1OC(OC2C(OC3CCC4(C)C(=CCC5C4CCC4(C)C5CC5OC6(CCC(C)(COC7OC(CO)C(O)C(O)C7O)O6)C(C)C54)C3)OC(CO)C(OC3OC(CO)C(O)C(OC4OC(CO)C(O)C(O)C4O)C3O)C2O)C(O)C(O)C1O (centres unmarked) [AVE B, Avenacoside B]	0.64 ± 0.07	3.76 ± 0.29	5e-05	0.44 ± 0.05	2.5	7.5e-05	3.29 ± 0.14	2.98 ± 0.13	2200 (3) L	0.41 (9) 1/h	0.27 (3) 1/h	2.56 ± 0.20^2 h	0.41 ± 0.02 h⁻¹	2079 ± 212	2600 (21) L	0.45 (22) 1/h	0.19 (20) 1/h	0.46 ± 0.03	2606 ± 266	–	AUC(norm) ([1]; liquid): 1.8 ± 0.2 nM·h; AUC(norm) ([1]; solid): 2.1 ± 0.3 nM·h
CC1OC(OC2C(OC3CCC4(C)C(=CCC5C4CCC4(C)C5CC5OC6(CCC(C)(COC7OC(CO)C(O)C(O)C7O)O6)C(C)C54)C3)OC(CO)C(OC3OC(CO)C(O)C(O)C3O)C2O)C(O)C(O)C1O (centres unmarked) [AVE A, Avenacoside A]	2.03 ± 0.22	3.32 ± 0.26	5.83e-05	1.31 ± 0.14	3.2	6.39e-05	1.78 ± 0.08	2.51 ± 0.11	5900 (3) L	1.4 (3) 1/h	0.21 (10) 1/h	3.17 ± 0.24 h	1.4 ± 0.1^1 1/h	6718 ± 686^2	9700 (2) L	2.7 (8) 1/h	0.22 (6) 1/h	2.3 ± 0.13	11,055 ± 1130	–	–

Source: PMC12418703, “Avenanthramides and avenacosides as biomarkers of oat intake: a pharmacokinetic study of solid and liquid oat consumption under single and repeated dose conditions” (Nutrition Journal, 2025)
